# Source: patent publication US10786505B2, “Administration of NEDD8-activating enzyme inhibitor and chemotherapeutic agents” (Millennium Pharmaceuticals, Inc., priority 2013, dated 2020)
# Columns and labels:
# Type in all cases: in vivo, mice
# NCI-H82 xenograft model = assay: Combination of cisplatin and MLN4924 in NCI-H82 xenograft model
# Protocol: (§1) NCI-H69 or NCI-H82 small cell lung tumor fragments (30- to 40-mg) are implanted into the subcutaneous space in the area of the right flank of NCr nu/nu mice (7-10 weeks, Charles River Laboratories, Inc, Frederick Md. or Wilmington, Mass.) using a 12-gauge trocar.
# (§2) Tumors are measured twice weekly using a vernier caliper. Tumor volumes are calculated using standard procedures (0.5×(length×width^2)). […] Tumor size and body weight are measured approximately twice a week for the duration of the study. Mice are euthanized when their tumor volume reached 10% of their body weight, or when the average tumor volume of a treatment or control group reached approximately 2000 mm^3. Tumor growth continued to be monitored after the dosing period in some studies. Average tumor volume is reported as a function of time for selected groups of selected studies in Figures A, B, and C.
# (§3) Measurements from day 0 to 18, 21 or 22 are analyzed as specified in Tables 4-9. All tumor volumes have a value of 1 added to them before log10 transformation. For each animal, the log tumor volume at day 0 is subtracted from the log tumor volume on the subsequent days. This difference vs. time is used to calculate an area under the curve (AUC) for each animal using the trapezoid rule. […] The synergy score for the combination of agents A and B is defined as 100*(mean(AUCAB)−mean(AUCA)−mean(AUCB)+mean(AUCctl))/mean(AUCctl): where AUCAB, AUCA, AUCB, and AUCctl are the AUC values for animals in the combination group, the A group, the B group, and the control group, respectively. The standard error of the synergy score is computed based on the variation in the AUC values among the animals. […] If the P-value is above 0.05, then the combination is considered to be additive. If the P-value is below 0.05, and the synergy score is less than zero, then the combination is considered to be synergistic. […] Otherwise, the combination is classified as antagonistic.
# PHTX02B xenograft model = assay: Combination of gemcitabine and MLN4924 in PHTX02B xenograft model
# Protocol: (§4) The PHTX02B breast xenograft model was established from a patient-derived tumor collected during surgery from a person with invasive ductal carcinoma classified as triple negative breast cancer (ER-/PR-/Her2-) by IHC. […] Gemcitabine (Gemzar, Henry Schein, Inc, Pittsburgh Pa., and Myoderm Medical, Norristown, Pa.) is formulated in 0.9% saline and administered by intraperitoneal injection (IP) q3Dx4 (every 3 days for a total of 4 doses) at 2.5 mg/kg or 10 mg/kg, or by IV injection twice weekly (BIW) at 20 mg/kg IVU. […] Tumors are measured twice weekly using a vernier caliper. […] Tumor size and body weight are measured approximately twice a week for the duration of the study. […] Tumor growth continued to be monitored after the dosing period in some studies. […] Average tumor volume is reported as a function of time for selected groups of selected studies in Figures A, B, and C. Measurements from day 0 to 18, 21 or 22 are analyzed as specified in Tables 4-9. […] For each animal, the log tumor volume at day 0 is subtracted from the log tumor volume on the subsequent days. This difference vs. time is used to calculate an area under the curve (AUC) for each animal using the trapezoid rule. In instances when an animal in a treatment group is removed early from the study, the last observed tumor value is carried forward through all subsequent time points. […] The standard error of the synergy score is computed based on the variation in the AUC values among the animals. […] Otherwise, the combination is classified as antagonistic.
# [1] = system: PHTX249Pa xenograft model; assay: Combination of gemcitabine and MLN4924 in PHTX249Pa xenograft model
# Protocol: as §4, with “PHTX249 Pa pancreatic” for “PHTX02B breast”, “pancreatic adenocarcinoma.” for “invasive ductal carcinoma classified as triple negative breast cancer (ER-/PR-/Her2-) by IHC.”
# [2] = system: NCI-H1650 xenograft model; assay: Combination of docetaxel and MLN4924 in NCI-H1650 xenograft model
# From the text: NCI-H1650 (2×10^6) tumor cells in RPMI-1640 media are mixed with an equal volume of Matrigel (BD Biosciences) and aseptically injected into the subcutaneous space in the right dorsal flank of Balb/c Nude mice (age 4-6 weeks, Shanghai SINO-British SIPPR/BK Lab Animal Ltd.) using a 25-gauge needle.
# Docetaxel (Henry Schein, Inc., Pittsburgh Pa., Qilu Pharmaceutical Co., Ltd., Jinan, Shandong, China, and Sanofi-Aventis) is formulated in 0.9% saline and administered by intravenous injection (IV) once weekly (QW) at 5 mg/kg or 10 mg/kg.
# as §2, §3
# NCI-H69 xenograft model = assay: Combination of carboplatin and MLN4924 in NCI-H69 xenograft model
# Protocol: as §1
# Carboplatin (CARBOplatin Injection, Hospira, Inc., Qilu Pharmaceutical Co., Ltd. Jinan, Shandong, China, and Teva Gry-Pharma GmbH, Ulm, Germany) is formulated in 0.9% saline and administered by IP injection once weekly (QW) at 50 mg/kg. The once weekly schedule is also described as every 7 days (Q7D).
# as §2, §3
smiles,measurement,setting,value
"NS(=O)(=O)OC[C@@H]1C[C@@H](n2ccc3c(N[C@H]4CCc5ccccc54)ncnc32)C[C@@H]1O [MLN4924, ((1S,2S,4R)-4-(4-((1S)-2,3-dihydro-1H-inden-1-ylamino)-7H-pyrrolo[2,3-d]-pyrimidin-7-yl)-2-hydroxycyclopentyl)methyl sulfamate]",average tumor volume day 22,NCI-H82 xenograft model; 60 mg/kg MLN4924 BID Q2Dx3/week SC,861.9 mm^3
same,average tumor volume day 22,NCI-H82 xenograft model; 60 mg/kg MLN4924 BID Q3Dx2/week SC,783.3 mm^3
same,average tumor volume day 22,PHTX02B xenograft model; 30 mg/kg MLN4924 BID SC,647.4 mm^3
same,tumor growth during the treatment period (in words),"PHTX02B xenograft model; FIG. 2, MLN4924 SC 30 mg/kg BID, gemcitabine 10 mg/kg IP q3dx4, single agents or their combination",inhibited tumor growth compared to the control vehicle group
same,average tumor volume day 18,"[1]; PHTX249Pa xenograft, 90 mg/kg MLN4924 BID BIW SC",1748.9 mm^3
same,tumor growth compared to the control vehicle group (in words),"[1]; PHTX249 Pa xenograft, gemcitabine 20 mg/kg IV BIW, MLN4924 90 mg/kg SC BID BIW, single agents or their combination",did not show growth inhibition compared to the control vehicle group
same,average tumor volume day 21,[2]; 90 mg/kg MLN4924 Q2Dx3/week SC,776.8 mm^3
same,average tumor volume day 21,[2]; 120 mg/kg MLN4924 Q2Dx3/week SC,774.2 mm^3
same,average tumor volume day 21,NCI-H69 xenograft model; 60 mg/kg MLN4924 BID Q3D x 2/week SC,597.1 mm^3
same,average tumor volume day 21,NCI-H69 xenograft model; 120 mg/kg MLN4924 BID Q3D x 2/week SC,415.2 mm^3
same,tumor growth during the treatment period (in words),"NCI-H69 xenograft model; FIG. 3, MLN4924 SC 120 mg/kg BID Q3Dx2/week, carboplatin 50 mg/kg IP QW, single agents or their combination",inhibited tumor growth compared to the control vehicle group
